Measured values from patent US20200148635A1 (priority 2017, published 2020).

Assays:
Alternaria solani = experiment: In vitro test Alternaria solani (early blight of tomato/potato), radial growth on Potato Dextrose Agar; assay type: cell-based; conditions: 168 h, agar plate, 25° C., seven days, read-out: control compared to the untreated check
Method: (§1) Alternaria solani (early blight of tomato/potato): Compounds were dissolved in 0.3% DMSO and then added to Potato Dextrose Agar medium just prior to dispensing it into Petri dishes. 5 mL medium with compound in the desired concentration was dispensed into 60 mm sterile Petri-plates. After solidification each plate was seeded with 5 mm size mycelial disc taken form periphery of actively growing virulent culture plate. Plates were incubated in growth chambers at 25° C. temperature and 60% relative humidity for seven days and radial growth was measured.

Rhizoctonia solani = experiment: In vitro test Rhizoctonia solani (rice sheath blight/potato black scurf), radial growth on Potato Dextrose Agar; assay type: cell-based; conditions: 168 h, agar plate, 25° C., seven days, read-out: control compared to the untreated check
Method: Rhizoctonia solani (Rice Sheath Blight/Potato Black Scurf):
as §1, with “Compounds” for “Alternaria solani (early blight of tomato/potato): Compounds”

Septoria lycopersici = experiment: In vitro test Septoria lycopersici (leaf spot of tomato), radial growth on Potato Dextrose Agar; assay type: cell-based; conditions: 168 h, agar plate, 25° C., seven days, read-out: control compared to the untreated check
Method: Septoria lycopersici (Leaf Spot of Tomato):
as §1, with “Compounds” for “Alternaria solani (early blight of tomato/potato): Compounds”, “70%” for “60%”

Pyricularia oryzae = experiment: microbe, parasite or virus in culture; assay type: cell-based; conditions: 168 h, read-out: control compared to the untreated check
Phakopsora pachyrhizi = experiment: Greenhouse Phakopsora pachyrhizi test in soybean, preventive; assay type: in vivo; conditions: preventive spray on soybean plants, inoculated one day after treatment with Phakopsora pachyrhizi, read-out: control compared to the untreated check
Method: Phakopsora pachyrhizi Test in Soybean
Compounds were dissolved in 2% DMSO/Acetone and then mixed with water to the calibrated spray volume of 50 mL and poured into the spray bottles for further applications.
To test the preventive activity of compounds, healthy young soybean plants raised in the greenhouse were sprayed with active compound preparation at the stated application rates inside the spray cabinets using hallowcone nozzles. One day after treatment, the plants were inoculated with spore suspension containing 2.1×10^6 Phakopsora pachyrhizi inoculum. The inoculated plants were then kept in greenhouse chamber at 25° C. temperature and 90% relative humidity for disease expression.
A visual assessment of compound's performance was carried out by rating the disease severity (0-100% scale) on treated plants on 3, 7, 10 and 15 days after application. Efficacy (% control) of the compounds was calculated by comparing the disease rating in the treatment with the one of the untreated control. The sprayed plants were also assessed for compound's plant compatibility by recording symptoms like necrosis, chlorosis and stunting.

| Compound | inhibition of growth at 300 ppm (Alternaria solani) | inhibition of growth at 300 ppm (Pyricularia oryzae) | other results |
| --- | --- | --- | --- |
| CCN(C)C=Nc1cc(C)c(S(C)(=O)=Nc2ccccc2)cc1Cl (stereo not shown) [Compound 17] | > 70% |  | inhibition of growth at 300 ppm (Rhizoctonia solani): > 70%; inhibition of growth at 300 ppm (Septoria lycopersici): > 70% |
| CCN(C)C=Nc1cc(C)c(Oc2cccc(S(C)(=O)=NCC3CC3)c2)cc1Cl (stereo not shown) [Compound 18] |  | > 70% |  |
| CCN=S(=O)(CC1CC1)c1cccc(Oc2cc(Cl)c(N=CN(C)CC)cc2C)c1 (stereo not shown) [Compound 20] |  |  | inhibition of growth at 300 ppm (Septoria lycopersici): > 70% |
| CCN(C)C=Nc1cc(C)c(S(C)(=O)=Nc2cccc(OC)c2)cc1Cl (stereo not shown) [Compound 24] |  | > 70% |  |
| CCN(C)C=Nc1cc(C)c(S(C)(=O)=NC(=O)c2ccccc2)cc1Cl (stereo not shown) [Compound 28] |  | > 70% |  |
| CCN(C)C=Nc1cc(C)c(S(C)(=O)=NC(=O)c2ccc(F)c(Cl)c2)cc1Cl (stereo not shown) [Compound 29] |  | > 70% |  |
| CCN(C)C=Nc1cc(C)c(S(C)(=O)=NC(=O)c2cccc(C(F)(F)F)c2)cc1Cl (stereo not shown) [Compound 30] |  | > 70% |  |
| CCN(C)C=Nc1cc(C)c(S(C)(=O)=NC(=O)c2cc(C(F)(F)F)cc(C(F)(F)F)c2)cc1Cl (stereo not shown) [Compound 31] |  | > 70% | pest or weed control at 500 ppm (Phakopsora pachyrhizi): > 70% |
| CCN(C)C=Nc1cc(C)c(S(C)(=O)=NC(=O)c2ccc(F)c(F)c2)cc1Cl (stereo not shown) [Compound 34] |  | > 70% | pest or weed control at 500 ppm (Phakopsora pachyrhizi): > 70% |
| CCN(C)C=Nc1cc(C)c(S(C)(=O)=Nc2cccc(C(F)(F)F)c2)cc1Cl (stereo not shown) [Compound 36] |  | > 70% |  |
| CCN(C)C=Nc1cc(C)c(S(C)(=O)=NC(=O)c2cccc(Cl)c2)cc1Cl (stereo not shown) [Compound 40] |  | > 70% |  |
| CCN(C)C=Nc1cc(C)c(S(C)(=O)=Nc2ccc(Cl)c(C(F)(F)F)c2)cc1Cl (stereo not shown) [Compound 41] |  | > 70% |  |
| CCN(C)C=Nc1cc(C)c(S(C)(=O)=Nc2cccc(S(F)(F)(F)(F)F)c2)cc1Cl (stereo not shown) [Compound 45] | > 70% |  | inhibition of growth at 300 ppm (Septoria lycopersici): > 70% |
| CCN(C)C=Nc1cc(Br)c(N=S(C)(=O)c2ccccc2)nc1C (stereo not shown) [Compound 47] |  | > 70% | pest or weed control at 500 ppm (Phakopsora pachyrhizi): > 70% |
| CCN(C)C=Nc1cc(C)c(S(=O)(CC)=NC(=O)c2cccc(C(F)(F)F)c2)cc1Cl (stereo not shown) [Compound 51] | > 70% | > 70% |  |
| CCN(C)C=Nc1cc(C)c(S(=O)(CC)=NC(=O)c2cccc(F)c2)cc1Cl (stereo not shown) [Compound 52] | > 70% |  |  |
| CCN(C)C=Nc1cc(C)c(S(=O)(CC)=NC(=O)c2cccc(OC(F)(F)F)c2)cc1Cl (stereo not shown) [Compound 53] | > 70% | > 70% |  |
| CCN=S(C)(=O)c1cccc(Oc2cc(C)c(N=CN(C)CC)cc2C)c1 (stereo not shown) [Compound 54] |  | > 70% |  |
| CCN(C)C=Nc1cc(C)c(N=S(=O)(CCC(C)C)c2ccccc2)cc1C (stereo not shown) [Compound 55] |  | > 70% |  |
| CCN(C)C=Nc1cc(Br)c(N=S(C)(=O)c2ccc(Br)cc2)nc1C (stereo not shown) [Compound 56] |  | > 70% |  |
| CCN(C)C=Nc1cc(Br)c(N=S(=O)(CCC(C)C)c2ccccc2)nc1C (stereo not shown) [Compound 57] |  | > 70% |  |
| CCN(C)C=Nc1cc(C)c(S(=O)(CC)=NC(=O)c2ccccc2)cc1Cl (stereo not shown) [Compound 58] |  | > 70% |  |
| CCN(C)C=Nc1cc(C)c(S(=O)(CC)=NC(=O)c2nn(C)cc2C(F)F)cc1Cl (stereo not shown) [Compound 59] |  | > 70% |  |
| CCN(C)C=Nc1cc(C)c(S(=O)(CC)=Nc2cccc(C(F)(F)F)c2)cc1Cl (stereo not shown) [Compound 60] |  | > 70% | pest or weed control at 500 ppm (Phakopsora pachyrhizi): > 70% |
| CCN(C)C=Nc1cc(C)c(S(=O)(CC)=Nc2cccc(OC(F)(F)F)c2)cc1Cl (stereo not shown) [Compound 61] | > 70% |  | pest or weed control at 500 ppm (Phakopsora pachyrhizi): > 70%; inhibition of growth at 300 ppm (Septoria lycopersici): > 70% |

| Compound | inhibition of growth at 300 ppm (Alternaria solani) | inhibition of growth at 300 ppm (Pyricularia oryzae) | other results |
| --- | --- | --- | --- |
| CCN(C)C=Nc1cc(C)c(S(=O)(CC)=Nc2cc(F)c(F)c(F)c2)cc1Cl (stereo not shown) [Compound 62] | > 70% | > 70% |  |
| CCN(C)C=Nc1cc(C)c(S(=O)(CC)=Nc2ccccc2)cc1Cl (stereo not shown) [Compound 64] | > 70% |  |  |
| CCN(C)C=Nc1cc(C)c(N=S(=O)(c2ccccc2)C(C)C)cc1C (stereo not shown) [Compound 66] | > 70% |  | inhibition of growth at 300 ppm (Rhizoctonia solani): > 70% |
| CCN(C)C=Nc1cc(Br)c(Oc2cccc(S(C)(=O)=NCC3CCC3)c2)nc1C (stereo not shown) [Compound 69] |  | > 70% |  |
| CCN(C)C=Nc1cc(C)c(Oc2cccc(S(C)(=O)=NCC3CCC3)c2)cc1C (stereo not shown) [Compound 71] |  | > 70% |  |
| CCN(C)C=Nc1cc(C)c(S(=O)(CC(C)C)=NC(=O)c2ccc(F)c(Cl)c2)cc1Cl (stereo not shown) [Compound 72] |  | > 70% |  |
| CCN(C)C=Nc1cc(C)c(N=S(=O)(c2cccc(OC)c2)C(C)C)cc1C (stereo not shown) [Compound 75] |  | > 70% | pest or weed control at 500 ppm (Phakopsora pachyrhizi): > 70% |
| CCN(C)C=Nc1cc(Br)c(N=S(=O)(c2cccc(OC)c2)C(C)C)nc1C (stereo not shown) [Compound 78] | > 70% |  |  |
| CCN(C)C=Nc1cc(C)c(S(=O)(CC(C)C)=NCc2ccc(F)c(Cl)c2)cc1Cl (stereo not shown) [Compound 100] |  | > 70% |  |
| CCN(C)C=Nc1cc(C)c(S(=O)(CC(C)C)=NCc2cccc(Cl)c2)cc1Cl (stereo not shown) [Compound 101] | > 70% |  | pest or weed control at 500 ppm (Phakopsora pachyrhizi): > 70% |
| CCN(C)C=Nc1cc(C)c(S(=O)(CC(C)C)=NCc2cccc(C(F)(F)F)c2)cc1Cl (stereo not shown) [Compound 102] | > 70% | > 70% |  |
| CCN(C)C=Nc1cc(Br)c(N=S(=O)(CC2CC2)c2cccc(F)c2)nc1C (stereo not shown) [Compound 106] |  | > 70% | pest or weed control at 500 ppm (Phakopsora pachyrhizi): > 70% |
| CCN(C)C=Nc1cc(C)c(S(=O)(CC(C)C)=Nc2ccc(N(C)C)cc2)cc1Cl (stereo not shown) [Compound 110] |  | > 70% |  |
| CCN(C)C=Nc1cc(C)c(S(=O)(CC(C)C)=Nc2ccc(OC)cc2)cc1Cl (stereo not shown) [Compound 111] |  | > 70% |  |
| CCN(C)C=Nc1cc(C)c(Oc2cccc(S(C)(=O)=NCC#N)c2)cc1C (stereo not shown) [Compound 125] | > 70% | > 70% |  |
| CCN(C)C=Nc1cc(C)c(Oc2ccc(S(C)(=O)=NC#N)cc2)cc1Cl (stereo not shown) [Compound 129] |  |  | pest or weed control at 500 ppm (Phakopsora pachyrhizi): > 70% |
| CCN=S(C)(=O)c1ccc(Cc2cc(C)c(N=CN(C)CC)cc2C)cc1 (stereo not shown) [Compound 130] | > 70% |  |  |
| CCN(C)C=Nc1cc(C)c(Cc2ccc(S(C)(=O)=NCC3CC3)cc2)cc1C (stereo not shown) [Compound 131] | > 70% |  |  |
| CCN(C)C=Nc1cc(C)c(Cc2ccccc2S(C)(=N)=O)cc1C (stereo not shown) [Compound 136] |  | > 70% |  |
| CCN(C)C=Nc1cc(C)c(Cc2ccccc2S(C)(=O)=NC)cc1C (stereo not shown) [Compound 137] |  | > 70% |  |
| CCN(C)C=Nc1cc(C)c(Cc2ccccc2S(C)(=O)=NCC2CC2)cc1C (stereo not shown) [Compound 138] |  | > 70% |  |
| CCN(C)C=Nc1cc(C)c(Nc2ccc(S(C)(=O)=NCC3CC3)cc2)cc1C (stereo not shown) [Compound 139] | > 70% |  | inhibition of growth at 300 ppm (Septoria lycopersici): > 70% |
| CCN(C)C=Nc1cc(C)c(Oc2cccc(S(=N)(=O)C(F)(F)F)c2)cc1C (stereo not shown) [Compound 148] |  | > 70% |  |
| CCN(C)C=Nc1cc(C)c(Oc2cccc(S(=O)(=NC)C(F)(F)F)c2)cc1C (stereo not shown) [Compound 151] |  | > 70% |  |
| CCN(C)C=Nc1cc(C)c(Oc2ccccc2S(=O)(=NCC2CC2)C(F)(F)F)cc1Cl (stereo not shown) [Compound 152] |  | > 70% | pest or weed control at 500 ppm (Phakopsora pachyrhizi): > 70% |
